According to ChEMBL document CHEMBL4602617, “Discovery and optimization of heteroaryl piperazines as potent and selective PI3Kδ inhibitors” (Bioorg Med Chem Lett, 2020):

Legend:
[1] = Volume of drug distribution in rat at 0.5 mg/kg, iv or 1 mg/kg, po; assay type: ADME, organism-based; details: in vivo
[2] = biological target: Calcium/calmodulin-dependent protein kinase type II subunit beta (Homo sapiens, UniProt Q13554); test: Inhibition of recombinant full length human His-tagged CAMK2beta expressed in baculovirus expression system using serine/threonine-17 peptide as substrate incubated for 60 mins in presence of ATP by Z'-LYTE assay
[3] = biological target: Mitogen-activated protein kinase kinase kinase kinase 5 (Homo sapiens, UniProt Q9Y4K4); test: Inhibition of recombinant full length human GST-tagged KHS1 expressed in baculovirus expression system using serine/threonine-7 peptide as substrate incubated for 60 mins in presence of ATP by Z'-LYTE assay
[4] = biological target: Glycogen synthase kinase-3 alpha (Homo sapiens, UniProt P49840); test: Inhibition of recombinant full length GST-tagged human GSK3alpha expressed in baculovirus expression system using Ser/Thr 09 peptide as substrate after 1 hr in presence of ATP by Z'LYTE assay
[5] = biological target: Mitogen-activated protein kinase 10 (Homo sapiens, UniProt P53779); test: Inhibition of recombinant full length N-terminal GST-tagged human JNK3 expressed in baculovirus expression system using Ser/Thr-04 peptide as substrate after 1 hr in presence of ATP by Z'LYTE assay
[6] = biological target: 5-hydroxytryptamine receptor 2A (Homo sapiens) (UniProt P28223); test: Displacement of [3H]ketanserin from full length human recombinant 5HT2A receptor expressed in CHOK-1 cells at 10 uM measured after 60 mins by radiometric scintillation analysis relative to control; assay type: cell-based
[7] = biological target: 5-hydroxytryptamine receptor 1B (Rattus norvegicus) (UniProt P28564); test: Displacement of [125I]cyanopindolol from 5HT1B receptor in Wistar rat cerebral cortical membranes at 10 uM measured after 90 mins by radiometric scintillation analysis relative to control
[8] = biological target: Melanin-concentrating hormone receptor 1 (Homo sapiens) (UniProt Q99705); test: Displacement of [125I]Tyr-S36057 from full length human recombinant SLC1 receptor expressed in CHO-K1 cells at 10 uM measured after 120 mins by radiometric scintillation analysis relative to control; assay type: cell-based
[9] = biological target: Metabotropic glutamate receptor 5 (Homo sapiens) (UniProt P41594); test: Displacement of [3H]quisqualic acid from full length human recombinant mGlu5 receptor expressed in CHO-K1 cells at 10 uM measured after 120 mins by radiometric scintillation analysis relative to control; assay type: cell-based
Rattus norvegicus = species on record: Rattus norvegicus; test: Inhibition of rat kainate receptor at 10 uM relative to control
Homo sapiens = species on record: Homo sapiens; test: Inhibition of recombinant human PKA expressed in Escherichia coli at 10 uM using peptide as substrate after 15 mins by radiometric scintillation analysis relative to control
MAO-B = MAO-B (Homo sapiens, UniProt P27338); test: Inhibition of recombinant full-length human MAO-B expressed in insect cells at 10 uM using kynuramine as substrate after 60 mins by spectrophotometric analysis relative to control; details: probe kynuramine
[10] = biological target: Acetylcholinesterase (Homo sapiens) (UniProt P22303); test: Inhibition of human recombinant acetylcholine esterase expressed in HEK293 cells at 10 uM using acetylcholine as substrate preincubated for 15 mins followed by substrate addition measured after 20 mins by spectrophotometric analysis relative to control
CDK9/cyclin T1 = CDK9/cyclin T1 (Homo sapiens, UniProt P50750); test: Inhibition of recombinant full length human His-tagged CDK9/CyclinT1 expressed in baculovirus expression system using CDK7/9tide peptide as substrate incubated for 60 mins in presence of ATP by Adapta assay
[11] = biological target: Eukaryotic elongation factor 2 kinase (Homo sapiens, UniProt O00418); test: Inhibition of recombinant human full length GST-tagged EEF2K expressed in Escherichia coli expression system using serine/threonine-24 peptide as substrate incubated for 60 mins in presence of ATP by Z'-LYTE assay
[12] = biological target: Tyrosine-protein kinase Fer (Homo sapiens, UniProt P16591); test: Inhibition of recombinant GST-tagged human FER (541 to 822 residues) cytoplasmic domain expressed in baculovirus expression system using Tyr 05 peptide as substrate after 1 hr in presence of ATP by Z'-LYTE assay
[13] = biological target: Tyrosine-protein kinase Lyn (Homo sapiens, UniProt P07948); test: Inhibition of recombinant full length human His-tagged LYN-A expressed in baculovirus expression system using tyrosine-2 peptide as substrate incubated for 60 mins in presence of ATP by Z'-LYTE assay
[14] = biological target: Mitogen-activated protein kinase kinase kinase 9 (Homo sapiens, UniProt P80192); test: Inhibition of recombinant human GST-tagged MAP3K9 catalytic domain expressed in baculovirus expression system using serine/threonine-7 peptide as substrate incubated for 60 mins in presence of ATP by Z'-LYTE assay
[15] = biological target: Serine/threonine-protein kinase Nek2 (Homo sapiens, UniProt P51955); test: Inhibition of recombinant full length human His-tagged NEK2 expressed in baculovirus expression system using serine/threonine-7 peptide as substrate incubated for 60 mins in presence of ATP by Z'-LYTE assay
[16] = biological target: Serine/threonine-protein kinase PAK 3 (Homo sapiens, UniProt O75914); test: Inhibition of recombinant full length human His-tagged PAK3 expressed in baculovirus expression system using serine/threonine-20 peptide as substrate incubated for 60 mins in presence of ATP by Z'-LYTE assay
[17] = biological target: Platelet-derived growth factor receptor alpha (Homo sapiens, UniProt P16234, T674I); test: Inhibition of recombinant human GST-tagged PDGFRalpha cytoplasmic domain (550 to 1089 residues) harboring T674I mutant expressed in baculovirus expression system using tyrosine-4 peptide as substrate incubated for 60 mins in presence of ATP by Z'-LYTE assay
[18] = biological target: Platelet-derived growth factor receptor beta (Homo sapiens, UniProt P09619); test: Inhibition of recombinant human His-tagged PDGFRbeta cytoplasmic domain expressed in baculovirus expression system using tyrosine-4 peptide as substrate incubated for 60 mins in presence of ATP by Z'-LYTE assay
[19] = biological target: Proto-oncogene tyrosine-protein kinase receptor Ret (Homo sapiens, UniProt P07949); test: Inhibition of recombinant human GST-tagged RET cytoplasmic domain expressed in baculovirus expression system using tyr02 peptide as substrate incubated for 60 mins in presence of ATP by Z'-LYTE assay
[20] = biological target: Proto-oncogene tyrosine-protein kinase receptor Ret (Homo sapiens, UniProt P07949, Y791F); test: Inhibition of recombinant human GST-tagged RET Y791F mutant cytoplasmic domain expressed in baculovirus expression system using tyr02 peptide as substrate incubated for 60 mins in presence of ATP by Z'-LYTE assay
[21] = biological target: Serine/threonine-protein kinase Sgk1 (Homo sapiens, UniProt O00141); test: Inhibition of recombinant human GST-tagged SGK1 catalytic domain (60 to 431 residues) expressed in baculovirus expression system using serine/threonine-6 peptide as substrate incubated for 60 mins in presence of ATP by Z'-LYTE assay

Platelet-derived growth factor receptor alpha, sequence (P16234 24-1089 T674I limits assumed): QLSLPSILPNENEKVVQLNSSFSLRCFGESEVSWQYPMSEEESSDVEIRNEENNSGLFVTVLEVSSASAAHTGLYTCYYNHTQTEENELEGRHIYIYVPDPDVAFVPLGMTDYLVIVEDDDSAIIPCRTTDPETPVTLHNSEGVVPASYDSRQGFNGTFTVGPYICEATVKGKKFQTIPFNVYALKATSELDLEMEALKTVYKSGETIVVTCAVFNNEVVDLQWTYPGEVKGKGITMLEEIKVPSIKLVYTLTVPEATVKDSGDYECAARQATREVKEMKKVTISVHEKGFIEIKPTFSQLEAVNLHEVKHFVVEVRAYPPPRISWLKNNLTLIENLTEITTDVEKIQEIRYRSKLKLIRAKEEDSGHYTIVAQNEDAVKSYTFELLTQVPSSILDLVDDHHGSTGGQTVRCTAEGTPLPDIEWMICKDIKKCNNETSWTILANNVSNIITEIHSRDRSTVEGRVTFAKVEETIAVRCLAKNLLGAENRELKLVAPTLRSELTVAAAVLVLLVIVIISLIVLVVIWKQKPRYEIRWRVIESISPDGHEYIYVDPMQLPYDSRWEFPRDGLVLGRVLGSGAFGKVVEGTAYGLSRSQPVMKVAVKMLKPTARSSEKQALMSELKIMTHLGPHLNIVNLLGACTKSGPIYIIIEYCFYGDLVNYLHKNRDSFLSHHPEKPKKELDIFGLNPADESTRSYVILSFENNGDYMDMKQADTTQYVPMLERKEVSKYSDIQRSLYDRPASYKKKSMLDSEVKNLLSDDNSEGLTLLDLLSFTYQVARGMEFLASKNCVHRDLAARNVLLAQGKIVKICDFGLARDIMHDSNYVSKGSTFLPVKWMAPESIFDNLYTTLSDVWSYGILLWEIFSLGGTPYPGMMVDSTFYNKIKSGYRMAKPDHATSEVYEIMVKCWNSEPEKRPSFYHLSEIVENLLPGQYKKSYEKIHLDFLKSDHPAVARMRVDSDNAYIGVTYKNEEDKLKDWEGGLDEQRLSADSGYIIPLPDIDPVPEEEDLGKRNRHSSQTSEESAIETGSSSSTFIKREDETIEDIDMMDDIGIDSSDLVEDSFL
Melanin-concentrating hormone receptor 1 (Homo sapiens), sequence (Q99705 whole entry): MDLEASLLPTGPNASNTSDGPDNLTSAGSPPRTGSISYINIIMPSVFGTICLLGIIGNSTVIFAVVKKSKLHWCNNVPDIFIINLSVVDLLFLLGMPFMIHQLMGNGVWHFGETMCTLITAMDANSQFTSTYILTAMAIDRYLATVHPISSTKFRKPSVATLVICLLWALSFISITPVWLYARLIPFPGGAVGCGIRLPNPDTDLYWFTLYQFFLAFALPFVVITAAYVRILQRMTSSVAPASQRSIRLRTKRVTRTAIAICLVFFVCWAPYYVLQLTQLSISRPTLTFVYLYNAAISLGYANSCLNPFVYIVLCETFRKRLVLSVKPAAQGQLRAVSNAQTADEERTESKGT
MAO-B, sequence (P27338 whole entry): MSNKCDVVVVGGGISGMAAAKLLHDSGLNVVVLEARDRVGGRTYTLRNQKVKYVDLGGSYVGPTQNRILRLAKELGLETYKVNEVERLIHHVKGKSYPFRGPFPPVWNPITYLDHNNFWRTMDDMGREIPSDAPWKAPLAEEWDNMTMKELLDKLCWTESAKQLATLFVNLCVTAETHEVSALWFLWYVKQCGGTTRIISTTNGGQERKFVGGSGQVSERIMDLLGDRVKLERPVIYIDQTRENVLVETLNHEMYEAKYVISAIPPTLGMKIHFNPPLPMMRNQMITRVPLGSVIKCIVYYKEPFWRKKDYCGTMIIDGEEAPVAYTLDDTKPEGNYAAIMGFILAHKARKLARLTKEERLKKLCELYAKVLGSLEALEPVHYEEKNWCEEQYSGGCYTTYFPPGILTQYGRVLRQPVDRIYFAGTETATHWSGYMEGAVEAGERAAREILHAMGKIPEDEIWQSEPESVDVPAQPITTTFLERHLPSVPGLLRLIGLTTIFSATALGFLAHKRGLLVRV
Tyrosine-protein kinase Fer, sequence (P16591 whole entry, the tested form may be a part): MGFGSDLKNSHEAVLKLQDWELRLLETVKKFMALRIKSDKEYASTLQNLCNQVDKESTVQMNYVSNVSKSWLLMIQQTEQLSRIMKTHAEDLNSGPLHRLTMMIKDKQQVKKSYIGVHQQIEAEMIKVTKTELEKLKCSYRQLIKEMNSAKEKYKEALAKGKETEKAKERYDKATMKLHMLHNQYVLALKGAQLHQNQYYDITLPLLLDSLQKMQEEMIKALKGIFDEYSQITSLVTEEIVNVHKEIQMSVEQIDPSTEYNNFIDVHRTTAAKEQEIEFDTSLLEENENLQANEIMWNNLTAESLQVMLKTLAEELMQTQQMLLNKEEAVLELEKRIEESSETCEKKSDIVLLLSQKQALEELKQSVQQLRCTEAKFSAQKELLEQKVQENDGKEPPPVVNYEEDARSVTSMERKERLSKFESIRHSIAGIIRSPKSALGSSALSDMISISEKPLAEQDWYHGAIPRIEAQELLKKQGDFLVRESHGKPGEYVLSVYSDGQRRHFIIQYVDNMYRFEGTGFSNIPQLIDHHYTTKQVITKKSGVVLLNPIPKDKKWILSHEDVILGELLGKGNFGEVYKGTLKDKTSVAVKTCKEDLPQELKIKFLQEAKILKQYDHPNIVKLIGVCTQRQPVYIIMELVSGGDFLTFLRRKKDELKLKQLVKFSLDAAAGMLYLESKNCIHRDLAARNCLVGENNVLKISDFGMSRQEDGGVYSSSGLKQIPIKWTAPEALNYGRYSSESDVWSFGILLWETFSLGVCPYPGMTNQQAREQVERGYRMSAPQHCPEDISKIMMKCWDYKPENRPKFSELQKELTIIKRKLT
Proto-oncogene tyrosine-protein kinase receptor Ret (Homo sapiens, UniProt P07949, Y791F), sequence (P07949 29-1114 Y791F limits assumed): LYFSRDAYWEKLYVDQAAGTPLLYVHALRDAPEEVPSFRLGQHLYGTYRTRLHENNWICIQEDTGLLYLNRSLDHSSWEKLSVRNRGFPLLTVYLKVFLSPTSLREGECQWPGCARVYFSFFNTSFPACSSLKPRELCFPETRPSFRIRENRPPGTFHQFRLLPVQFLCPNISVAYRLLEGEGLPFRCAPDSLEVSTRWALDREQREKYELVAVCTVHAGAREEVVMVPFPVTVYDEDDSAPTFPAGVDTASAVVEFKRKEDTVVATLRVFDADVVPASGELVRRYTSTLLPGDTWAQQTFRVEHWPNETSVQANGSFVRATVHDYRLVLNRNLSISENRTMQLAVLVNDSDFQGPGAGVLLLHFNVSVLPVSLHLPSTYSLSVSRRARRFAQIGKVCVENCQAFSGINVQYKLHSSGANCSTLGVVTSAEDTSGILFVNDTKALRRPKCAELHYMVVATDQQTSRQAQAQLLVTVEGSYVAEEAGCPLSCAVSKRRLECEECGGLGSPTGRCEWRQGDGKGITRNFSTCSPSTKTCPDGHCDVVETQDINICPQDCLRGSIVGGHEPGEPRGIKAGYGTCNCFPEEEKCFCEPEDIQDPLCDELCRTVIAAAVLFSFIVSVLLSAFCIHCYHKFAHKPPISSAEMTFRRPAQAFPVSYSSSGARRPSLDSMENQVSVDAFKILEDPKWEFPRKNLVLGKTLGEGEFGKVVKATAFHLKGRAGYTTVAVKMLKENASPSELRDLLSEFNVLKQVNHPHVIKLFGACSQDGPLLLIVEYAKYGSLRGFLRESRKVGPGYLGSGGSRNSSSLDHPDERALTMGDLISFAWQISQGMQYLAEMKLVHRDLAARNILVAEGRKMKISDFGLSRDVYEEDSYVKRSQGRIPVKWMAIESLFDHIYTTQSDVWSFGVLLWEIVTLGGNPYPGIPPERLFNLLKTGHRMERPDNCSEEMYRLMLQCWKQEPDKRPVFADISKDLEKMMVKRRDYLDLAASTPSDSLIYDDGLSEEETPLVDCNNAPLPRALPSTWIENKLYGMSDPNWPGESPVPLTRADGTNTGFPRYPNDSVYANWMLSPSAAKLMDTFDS
Mitogen-activated protein kinase kinase kinase kinase 5, sequence (Q9Y4K4 whole entry): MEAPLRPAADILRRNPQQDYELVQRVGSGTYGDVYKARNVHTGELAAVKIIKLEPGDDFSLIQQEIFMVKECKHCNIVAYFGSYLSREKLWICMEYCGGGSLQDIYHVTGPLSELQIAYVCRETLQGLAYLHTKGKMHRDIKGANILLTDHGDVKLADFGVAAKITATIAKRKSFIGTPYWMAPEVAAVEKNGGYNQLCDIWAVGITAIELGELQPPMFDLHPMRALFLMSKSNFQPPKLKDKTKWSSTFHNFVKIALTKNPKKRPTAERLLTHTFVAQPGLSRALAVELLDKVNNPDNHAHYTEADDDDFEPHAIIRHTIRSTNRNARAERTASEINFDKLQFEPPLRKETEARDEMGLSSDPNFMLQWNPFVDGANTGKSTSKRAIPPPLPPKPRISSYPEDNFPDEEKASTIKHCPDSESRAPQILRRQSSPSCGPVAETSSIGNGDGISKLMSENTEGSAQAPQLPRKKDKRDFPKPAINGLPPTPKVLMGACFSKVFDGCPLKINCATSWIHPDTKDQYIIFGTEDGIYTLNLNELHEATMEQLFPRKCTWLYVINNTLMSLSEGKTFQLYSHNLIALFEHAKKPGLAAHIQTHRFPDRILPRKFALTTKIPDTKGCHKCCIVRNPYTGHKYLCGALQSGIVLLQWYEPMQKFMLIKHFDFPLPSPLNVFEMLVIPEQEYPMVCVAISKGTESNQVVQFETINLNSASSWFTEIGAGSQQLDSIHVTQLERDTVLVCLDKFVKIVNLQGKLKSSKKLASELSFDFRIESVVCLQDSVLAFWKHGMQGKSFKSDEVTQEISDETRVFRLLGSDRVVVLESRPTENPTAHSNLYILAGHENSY

C[C@@H]1C[C@H]1C(=O)N1CCN(c2cnc(C#N)c(-c3cnn(C)c3)n2)C[C@H]1C
Vd [1]: 1.1 L/kg | IC50 [2]: > 100 µM | IC50 [3]: 30.4 µM | IC50 [4]: 26.1 µM | IC50 [5]: 5.37 µM | inhibition [6]: 6% | inhibition [7]: -5% | inhibition [8]: -2% | inhibition [9]: 8% | inhibition (Rattus norvegicus): 14% | inhibition (Homo sapiens): -3% | inhibition at 1 h, 10 µM (MAO-B): 11% | inhibition [10]: 37% | IC50 (CDK9/cyclin T1): > 100 µM | IC50 [11]: > 100 µM | IC50 [12]: > 100 µM | IC50 [13]: > 100 µM | IC50 [14]: > 100 µM | IC50 [15]: > 100 µM | IC50 [16]: > 100 µM | IC50 [17]: > 100 µM | IC50 [18]: > 100 µM | IC50 [19]: > 100 µM | IC50 [20]: > 100 µM | IC50 [21]: > 100 µM
